Assay results from the supplement of paper PMC10307832.

What was measured:
Assay in all cases: relative viability (nuclei count vs DMSO), 5 days (fraction); higher = more cells survive
NCI-H650 = system: NCI-H650
Summary of the method: (§1)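 Medians of duplicate plates are given as relative viability. That measure is the nuclei count in treated wells divided by the count in vehicle wells. Counts were taken on 4× images of lung cancer cell lines in 1536-well plates, 5 days after pin-tool dosing the day after seeding with one drug alone or a fixed anchor-drug dose plus five library-drug doses (not always all listed) in √10 steps.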

H3255 = system: H3255
Summary of the method: as §1

LK-2 = system: LK-2
Summary of the method: as §1

NCI-H727 = system: NCI-H727
Summary of the method: as §1

201T = system: 201T
Summary of the method: as §1

SW 900 = system: SW 900
Summary of the method: as §1

COR-L23 = system: COR-L23
Summary of the method: as §1

PC-14 = system: PC-14
Summary of the method: as §1

LU99A = system: LU99A
Summary of the method: as §1

NCI-H2347 = system: NCI-H2347
Summary of the method: as §1

NCI-H23 = system: NCI-H23
Summary of the method: as §1

`CC1(C)CCC(c2ccc(Cl)cc2)=C(CN2CCN(c3ccc(C(=O)NS(=O)(=O)c4ccc(N[C@H](CCN5CCOCC5)CSc5ccccc5)c(S(=O)(=O)C(F)(F)F)c4)cc3)CC2)C1` [Navitoclax] + Nc1ncn([C@H]2C[C@H](O)[C@@H](CO)O2)c(=O)n1 [Decitabine] (partner 2 µM) showed a relative viability (NCI-H650; first compound 0.005 µM) of 0.331, a relative viability (NCI-H650; first compound 0.01581 µM) of 0.298 and a relative viability (NCI-H650; first compound 0.05 µM) of 0.32. For the same molecule, the relative viability (NCI-H650; first compound 0.1581 µM) was 0.336, the relative viability (NCI-H650; first compound 0.5 µM) was 0.264 and the relative viability (H3255; first compound 0.005 µM) was 0.503. The relative viability (H3255; first compound 0.01581 µM) was 0.668, the relative viability (H3255; first compound 0.05 µM) was 0.567 and the relative viability (H3255; first compound 0.1581 µM) was 0.596. For the same molecule, the relative viability (H3255; first compound 0.5 µM) was 0.519, the relative viability (LK-2; first compound 0.005 µM) was 0.295 and the relative viability (LK-2; first compound 0.01581 µM) was 0.279. The relative viability (LK-2; first compound 0.05 µM) was 0.235, the relative viability (LK-2; first compound 0.1581 µM) was 0.267 and the relative viability (LK-2; first compound 0.5 µM) was 0.4. For the same molecule, the relative viability (NCI-H727; first compound 0.005 µM) was 0.903, the relative viability (NCI-H727; first compound 0.01581 µM) was 1.08 and the relative viability (NCI-H727; first compound 0.05 µM) was 0.839. It also gave a relative viability (NCI-H727; first compound 0.1581 µM) of 0.786, a relative viability (NCI-H727; first compound 0.5 µM) of 1.02 and a relative viability (201T; first compound 0.005 µM) of 0.891. It also gave a relative viability (201T; first compound 0.01581 µM) of 0.869, a relative viability (201T; first compound 0.05 µM) of 0.77 and a relative viability (201T; first compound 0.1581 µM) of 0.824. The relative viability (201T; first compound 0.5 µM) was 0.859, the relative viability (SW 900; first compound 0.005 µM) was 0.406 and the relative viability (SW 900; first compound 0.01581 µM) was 0.412. The relative viability (SW 900; first compound 0.1581 µM) was 0.445, the relative viability (SW 900; first compound 0.5 µM) was 0.262 and the relative viability (COR-L23; first compound 0.005 µM) was 0.428. The relative viability (COR-L23; first compound 0.01581 µM) was 0.425, the relative viability (COR-L23; first compound 0.05 µM) was 0.432 and the relative viability (COR-L23; first compound 0.1581 µM) was 0.428. The relative viability (COR-L23; first compound 0.5 µM) was 0.437, the relative viability (PC-14; first compound 0.005 µM) was 0.237 and the relative viability (PC-14; first compound 0.01581 µM) was 0.2. The relative viability (PC-14; first compound 0.05 µM) was 0.228, the relative viability (PC-14; first compound 0.1581 µM) was 0.211 and the relative viability (PC-14; first compound 0.5 µM) was 0.19. It also gave a relative viability (LU99A; first compound 0.005 µM) of 0.876, a relative viability (LU99A; first compound 0.01581 µM) of 0.977 and a relative viability (LU99A; first compound 0.1581 µM) of 0.921. It also gave a relative viability (LU99A; first compound 0.5 µM) of 0.989, a relative viability (NCI-H2347; first compound 0.005 µM) of 0.668 and a relative viability (NCI-H2347; first compound 0.01581 µM) of 0.551. For the same molecule, the relative viability (NCI-H2347; first compound 0.05 µM) was 0.574, the relative viability (NCI-H2347; first compound 0.1581 µM) was 0.654 and the relative viability (NCI-H2347; first compound 0.5 µM) was 0.582. For the same molecule, the relative viability (NCI-H23; first compound 0.005 µM) was 0.287, the relative viability (NCI-H23; first compound 0.01581 µM) was 0.32 and the relative viability (NCI-H23; first compound 0.05 µM) was 0.307. For the same molecule, the relative viability (NCI-H23; first compound 0.1581 µM) was 0.331 and the relative viability (NCI-H23; first compound 0.5 µM) was 0.272.
